Reference: patent US6057333A, “Discorhabdin compounds and methods of use” (Harbor Branch Oceanographic Institution, Inc., priority 1998, dated 2000)
In brackets after ≈: the same amount, converted by molar mass.

What was measured:
[1] = system: P388 cells; assay: P388 antiproliferative (MTT) assay; format: cell-based; settings: Mus musculus, 48 hr exposure
Description: (§1) P388 cells are obtained from Dr. J. Mayo, National Cancer Institute, Bethesda, Md., and A549 cells are obtained from American Type Culture Collection, Rockville, Md. All cell lines are maintained in Roswell Park Memorial Institute (RPMI) medium 1640 supplemented with 10% horse serum. All cell lines are cultured in plastic tissue culture flasks and kept in an incubator at 37° C. in humidified air containing 5% CO2. Prior to testing, antibiotic-free stock cultures of each of the cell lines are subcultured to 10^6 cells/ml by dilution in fresh growth medium at 2 to 3 day intervals.
(§2) To assess the antiproliferative effects of agents against the P388 cell line, 200 μl cultures (96-well tissue culture plates, Nunc, Denmark) are established at 1×10^5 cells/ml in drug-free medium or medium containing the test agent at 10.0, 1.0, 0.10 and 0.010 μg/ml. Solvent for all dilutions ethanol. All experimental cultures are initiated in medium containing Gentamycin sulfate (50 μg/ml; Schering Corporation, Kenilworth, N.J.). After48 hr exposures, P388 cells are enumerated using 3-[4,5-Dimethylthiazol-2-yl]-2,5-diphenyltetrazolium bromide (MTT).
To quantitate the effects on cell proliferation and resulting IC50 values, 75 μl of warm growth media containing 5 mg/ml MTT is added to each well, cultures returned to the incubator, and left undisturbed for 90 minutes. […]

[2] = system: A549 cells; assay: A549 antiproliferative (MTT) assay; format: cell-based; settings: Homo sapiens, additional 48 hr exposure prior to MTT addition
Description: as §1, §2
[…] Results are expressed as percent inhibition compared to the negative (no drug) control. Positive drug controls are included to monitor drug sensitivity of each of the cell lines. […]

[3] = target: T1, calcineurin (Bos taurus, UniProt P48452); assay: Calcineurin assay (p-nitrophenylphosphate phosphatase activity); format: biochemical, bovine; settings: pH 7.5, 30° C., 60 min
T1 construct: Calcineurin was prepared from bovine brain; from tissue; host or cells: bovine brain
T1 sequence (P63099 2-170, other chains not shown): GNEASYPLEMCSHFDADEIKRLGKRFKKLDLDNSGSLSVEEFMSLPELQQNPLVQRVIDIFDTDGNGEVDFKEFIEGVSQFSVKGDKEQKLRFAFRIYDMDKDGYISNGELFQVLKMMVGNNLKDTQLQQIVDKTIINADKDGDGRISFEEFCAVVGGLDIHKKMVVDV
Description: Calmodulin was prepared from bovine brain according to the method of Wallace et al. ([1983] Meth. Enzymol. 102:39-47). The calmodulin was either used directly or coupled to sepharose-4B to form the calmodulin-sepharoseaffinity column necessary for the isolation of calcineurin. Calcineurin was prepared from bovine brain by the method of Tallant et al. ([1983] Meth. Enzymol. 102:244-286), concentrated, aliquoted and stored at -80° C.
Calcineurin activity was assayed in 96-well microtiter plates in a final volume of 50 μl. Each well contained 50 mM Tris-HCl pH 7.5, 0.5 mM MnCl2, 0.05 mM CaCl2, 1 mM DTT, 50 mM p-nitrophenylphosphate (pNPP), 0.3 μg calcineurin, a five-fold excess of calmodulin, and either test samples or control compounds. Plates were incubated at 30° C. for 60 min. Liberated p-nitrophenol was determined by the change in absorbance at 405 nm.

[4] = target: T2, CPP32 (Homo sapiens, UniProt P42574); assay: Caspase inhibition (CPP32, Ac-DEVD-pNA substrate); format: biochemical; settings: Ac-DEVD-pNA 25 μM, pH 7.5, 30 degrees C., 30 minutes
T2 construct: BASF, Worchester, Mass; (gift, not a purchase)
T2 sequence (P42574 29-175 limits assumed): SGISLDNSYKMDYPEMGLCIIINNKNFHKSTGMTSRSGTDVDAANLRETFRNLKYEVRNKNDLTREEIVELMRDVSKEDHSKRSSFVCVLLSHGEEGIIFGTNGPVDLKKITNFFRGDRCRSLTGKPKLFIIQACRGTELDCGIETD
T2 sequence (P42574 176-277 limits assumed): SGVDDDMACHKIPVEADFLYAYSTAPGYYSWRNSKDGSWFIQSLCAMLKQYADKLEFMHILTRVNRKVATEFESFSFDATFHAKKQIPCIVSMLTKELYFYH
Description: Test samples were aliquoted into 96 well microtiter plates and allowed to air dry. The stock CPP32 enzyme (kindly supplied by BASF, Worchester, Mass.) was diluted by adding 10 μl of the enzyme to 17 ml of reaction buffer (50 mM Hepes pH 7.5; 10% glycerol; 5 mM Dithiothreitol; 0.5 mM EDTA). A volume of 180 μl of the diluted enzyme was added to wells containing the dried test samples, or to empty wells (control). The contents of the microtiter wells were mixed by shaking on a plate shaker. Plates were incubated at 30 degrees C. for 5 minutes. […] Controls for each plate consisted of an inhibitor control (50 nM DEVD-CHO final concentration); positive control (enzyme and substrate) and negative control (reaction buffer and substrate). The plates were covered with aluminum foil and mixed using a plate shaker for 5 minutes then incubated at 30 degrees C. for 30 minutes. Plates were read using on a plate reader with absorbance measured at 405 nm. Data was expressed as percent inhibition by comparing the absorbance values of test samples with those of the positive control (no sample).

In the case of `Cn1cc2c3c1C(=O)C1=C(C3=NCC2)C2(C=C(Br)C(=O)C(Br)=C2)CCN1` [discorhabdin P], the IC50 [1] is reported as 0.025 µg/mL, the IC50 [2] is reported as 0.41 µg/mL and the inhibition at 0.5 µg/mL ([3]; at 0.5 μg/ml) is reported as 33%. It also gave an inhibition at 5 µg/mL ([3]; at 5 μg/ml) of 64%, an IC50 [3] of 1150 nM and an IC50 [4] of 0.37 µg/mL (≈ 0.775 µM).
